Data published in PMC7436063, “Bioactive Chemical Composition of Cannabis Extracts and Cannabinoid Receptors” (Molecules, 2020).

How the values were obtained:
CB2 = molecular target: T1, CB2 (Homo sapiens, UniProt P34972); assay: cAMP assay (HitHunter), inhibition of forskolin-stimulated cAMP in CHO-K1-CB2 cells; type: cell-based
T1 construct: gene CNR2; expressed in CHO-K1-CB2 cell line (DiscoverX), cAMP reporter platform
Text: cAMP assay (HitHunter), inhibition of forskolin-stimulated cAMP in CHO-K1-CB2 cells on CB2

CB1 = molecular target: T2, CB1 (Homo sapiens, UniProt P21554); assay: cAMP assay (HitHunter), inhibition of forskolin-stimulated cAMP in CHO-K1-CB1 cells; type: cell-based
T2 construct: gene CNR1; expressed in CHO-K1-CB1 cell line (DiscoverX), cAMP reporter platform
Text: cAMP assay (HitHunter), inhibition of forskolin-stimulated cAMP in CHO-K1-CB1 cells on CB1

[1] = read-out: Receptor Potency (μM) / ^b IC50 (Antagonist) / CB1

T2 sequence (P21554 whole entry): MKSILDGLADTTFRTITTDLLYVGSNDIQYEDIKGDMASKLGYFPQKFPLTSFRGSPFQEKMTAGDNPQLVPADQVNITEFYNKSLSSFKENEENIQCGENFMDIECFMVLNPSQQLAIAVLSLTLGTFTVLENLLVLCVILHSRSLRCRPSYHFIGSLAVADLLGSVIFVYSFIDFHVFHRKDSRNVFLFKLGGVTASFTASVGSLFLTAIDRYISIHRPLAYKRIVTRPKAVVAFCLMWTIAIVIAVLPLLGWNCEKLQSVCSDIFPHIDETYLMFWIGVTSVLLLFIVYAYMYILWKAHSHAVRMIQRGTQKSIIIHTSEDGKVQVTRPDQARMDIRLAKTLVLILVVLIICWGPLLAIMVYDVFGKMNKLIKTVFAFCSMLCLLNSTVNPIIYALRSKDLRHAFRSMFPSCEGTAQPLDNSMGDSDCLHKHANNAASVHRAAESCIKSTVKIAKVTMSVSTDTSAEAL
T1 sequence (P34972 whole entry): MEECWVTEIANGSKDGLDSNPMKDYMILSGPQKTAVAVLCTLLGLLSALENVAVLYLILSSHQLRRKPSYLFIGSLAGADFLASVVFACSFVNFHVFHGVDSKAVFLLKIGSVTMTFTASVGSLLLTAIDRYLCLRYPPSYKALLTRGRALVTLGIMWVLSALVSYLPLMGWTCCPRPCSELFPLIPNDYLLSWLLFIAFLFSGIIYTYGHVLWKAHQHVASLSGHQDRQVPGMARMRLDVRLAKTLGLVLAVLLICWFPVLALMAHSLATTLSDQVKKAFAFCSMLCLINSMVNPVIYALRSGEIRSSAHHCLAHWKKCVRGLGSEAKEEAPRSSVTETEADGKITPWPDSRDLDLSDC

C=C(C)[C@@H]1CCC(C)=C[C@H]1c1c(O)cc(CCCCC)c(C(=O)O)c1O [CBDA]
EC50 (CB2; read-out: Receptor Potency (μM) / ^a EC50 (Agonist) / CB2): 17 ± 4 µM | IC50 (CB2; [1]): > 10 µM | EC50 (CB1; read-out: Receptor Potency (μM) / ^a EC50 (Agonist) / CB1): 17 ± 3 µM | IC50 (CB1; [1]): > 10 µM
